Several values for one entry are separate records, joined by “and”; a condition that tells them apart may be missing. Identical values can stand only once. Inconclusive results and toxic doses are left out. No stated cut-off is given here; in the data, active means T/C of 150% or more; inactive means T/C below 125%.
System: L1210 leukemia ip in BDF1 mice, survival T/C
Experiment: NCI In Vivo Anticancer Drug Screen. Data for tumor model L1210 Leukemia (intraperitoneal) in B6D2F1 (BDF1) mice
Details: endpoint: mean survival time, higher = longer survival
Method in brief: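 Ratio derived from survival: compound-dosed mice over vehicle-dosed mice, all bearing a transplantable tumor.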

[1] = dose: 100.0 mg/kg/injection, schedule: Q04DX002 (ip), vehicle: saline with Tween-80
[2] = dose: 200.0 mg/kg/injection, schedule: Q04DX002 (ip), vehicle: saline with Tween-80
[3] = dose: 200.0 mg/kg/injection, schedule: Q04DX003 (ip), vehicle: saline with Tween-80
[4] = dose: 400.0 mg/kg/injection, schedule: Q04DX002 (ip), vehicle: saline with Tween-80
[5] = dose: 400.0 mg/kg/injection, schedule: Q04DX003 (ip), vehicle: saline with Tween-80
[6] = dose: 100.0 mg/kg/injection, schedule: Q04DX003 (ip), vehicle: saline
[7] = dose: 200.0 mg/kg/injection, schedule: Q04DX003 (ip), vehicle: saline
[8] = dose: 400.0 mg/kg/injection, schedule: Q04DX003 (ip), vehicle: saline
[9] = dose: 100.0 mg/kg/injection, schedule: Q04DX003 (ip), vehicle: Klucel (hydroxypropylcellulose) (HPC)
[10] = dose: 200.0 mg/kg/injection, schedule: Q04DX003 (ip), vehicle: Klucel (hydroxypropylcellulose) (HPC)
[11] = dose: 400.0 mg/kg/injection, schedule: Q04DX003 (ip), vehicle: Klucel (hydroxypropylcellulose) (HPC)
[12] = dose: 100.0 mg/kg/injection, schedule: Q01DX001 (ip), vehicle: saline
[13] = dose: 100.0 mg/kg/injection, schedule: Q01DX009 (ip), vehicle: saline with Tween-80
[14] = dose: 200.0 mg/kg/injection, schedule: Q01DX009 (ip), vehicle: saline with Tween-80
[15] = dose: 200.0 mg/kg/injection, schedule: Q01DX001 (ip), vehicle: saline
[16] = dose: 400.0 mg/kg/injection, schedule: Q01DX001 (ip), vehicle: saline
[17] = dose: 100.0 mg/kg/injection, schedule: Q04DX003 (ip), vehicle: saline with Tween-80
[18] = dose: 400.0 mg/kg/injection, schedule: Q01DX009 (ip), vehicle: saline with Tween-80
[19] = dose: 50.0 mg/kg/injection, schedule: Q01DX001 (ip), vehicle: carboxymethylcellulose (CMC)
[20] = dose: 100.0 mg/kg/injection, schedule: Q01DX001 (ip), vehicle: carboxymethylcellulose (CMC)

Measured: T/C

COC1=C(C(=O)O)P(C)(=O)CC1 (stereo not given)
inactive: dose: 50.0 mg/kg/injection, schedule: Q04DX002 (ip), vehicle: saline with Tween-80 95 % of control | [1] 98 % of control | [2] 95 % of control

C[Si](C)(C)C(c1ccccc1)(c1ccccc1)c1ccccc1
inactive: dose: 25.6 mg/kg/injection, schedule: Q04DX002 (ip), vehicle: saline with Tween-80 101 % of control | dose: 64.0 mg/kg/injection, schedule: Q04DX002 (ip), vehicle: saline with Tween-80 90 % of control | [3] 87 % of control | [4] 90 % of control | [5] 88 % of control

CCc1ccc2ccc3c4ccccc4ccc3[n+]2c1
inactive: dose: 10.0 mg/kg/injection, schedule: Q01DX001 (ip), vehicle: saline 93 % of control | dose: 20.0 mg/kg/injection, schedule: Q01DX001 (ip), vehicle: saline 90 % of control | dose: 40.0 mg/kg/injection, schedule: Q01DX001 (ip), vehicle: saline 94 % of control

Cc1ccc[n+]([O-])c1N=[N+]=[N-]
inactive: [6] 102 % of control | [7] 102 % of control | [8] 98 % of control

O=C1CC(c2ccccc2)C1(c1ccccc1)c1ccccc1 (stereo not given)
inactive: [9] 98 % of control | [10] 101 % of control | [11] 96 % of control

O=C(O)c1c2ccccc2nc2ccccc12
inactive: dose: 50.0 mg/kg/injection, schedule: Q01DX001 (ip), vehicle: saline 102 % of control | [12] 111 % of control

CCC/C(=N\NC(=O)c1ccc(OC)cc1)c1ccccc1
inactive: dose: 50.0 mg/kg/injection, schedule: Q01DX009 (ip), vehicle: saline with Tween-80 94 % of control | [13] 102 % of control | [14] 94 % of control

Cc1ccccc1CN(C)N=O
inactive: [12] 101 % of control | [15] 94 % of control | [16] 91 % of control

O=C(O)c1cscn1
inactive: [12] 93 % of control | [13] 101 % of control and 90 % of control | [1] 97 % of control and 107 % of control | [17] 108 % of control | [15] 103 % of control | [14] 95 % of control and 97 % of control | [2] 97 % of control and 106 % of control | [3] 98 % of control | [16] 93 % of control | [18] 92 % of control | [4] 102 % of control and 92 % of control

O=c1[nH]cnc2nncnc12
inactive: [19] 93 % of control

O=C(NNC(=O)OCCCl)OCCCl
inactive: dose: 111.0 mg/kg/injection, schedule: Q01DX Z (ip), vehicle: methylcellulose (MC) 107 % of control | dose: 166.0 mg/kg/injection, schedule: Q01DX Z (ip), vehicle: methylcellulose (MC) 92 % of control | dose: 250.0 mg/kg/injection, schedule: Q01DX Z (ip), vehicle: methylcellulose (MC) 107 % of control

CC1CNC(=O)O1 (stereo not given)
inactive: dose: 25.0 mg/kg/injection, schedule: Q01DX009 (ip), vehicle: saline 97 % of control | dose: 50.0 mg/kg/injection, schedule: Q01DX009 (ip), vehicle: saline 97 % of control | dose: 50.0 mg/kg/injection, schedule: Q04DX003 (ip), vehicle: saline 106 % of control | dose: 100.0 mg/kg/injection, schedule: Q01DX009 (ip), vehicle: saline 98 % of control | dose: 100.0 mg/kg/injection, schedule: Q04DX002 (ip), vehicle: saline 100 % of control | [6] 106 % of control | dose: 200.0 mg/kg/injection, schedule: Q01DX009 (ip), vehicle: saline 95 % of control | dose: 200.0 mg/kg/injection, schedule: Q04DX002 (ip), vehicle: saline 91 % of control | [7] 101 % of control | dose: 400.0 mg/kg/injection, schedule: Q01DX009 (ip), vehicle: saline 95 % of control | dose: 400.0 mg/kg/injection, schedule: Q04DX002 (ip), vehicle: saline 91 % of control | [8] 100 % of control

O=C(Nc1ccc(C2=NCCN2)cc1)c1ccc([N+](=O)[O-])c(C(=O)Nc2ccc(C3=NCCN3)cc2)c1
inactive: dose: 10.0 mg/kg/injection, schedule: Q01DX Z (ip), vehicle: carboxymethylcellulose (CMC) 108 % of control | dose: 19.0 mg/kg/injection, schedule: Q01DX Z (ip), vehicle: carboxymethylcellulose (CMC) 108 % of control

CC(=O)c1ccc2c(c1)C(=O)c1ccccc1-2
inactive: [20] 92 % of control | dose: 200.0 mg/kg/injection, schedule: Q01DX001 (ip), vehicle: carboxymethylcellulose (CMC) 93 % of control | dose: 400.0 mg/kg/injection, schedule: Q01DX001 (ip), vehicle: carboxymethylcellulose (CMC) 93 % of control

N#CC(C#N)=Cc1cccnc1
inactive: dose: 12.5 mg/kg/injection, schedule: Q04DX003 (ip), vehicle: Klucel (hydroxypropylcellulose) (HPC) 98 % of control | dose: 25.0 mg/kg/injection, schedule: Q04DX003 (ip), vehicle: Klucel (hydroxypropylcellulose) (HPC) 100 % of control | [19] 101 % of control | dose: 50.0 mg/kg/injection, schedule: Q04DX003 (ip), vehicle: Klucel (hydroxypropylcellulose) (HPC) 93 % of control and 104 % of control | [20] 98 % of control

O=C/C(Br)=C(/Br)C(=O)O
inactive: dose: 6.25 mg/kg/injection, schedule: Q04DX002 (ip), vehicle: saline 100 % of control | dose: 12.5 mg/kg/injection, schedule: Q04DX002 (ip), vehicle: saline 100 % of control | dose: 25.0 mg/kg/injection, schedule: Q04DX002 (ip), vehicle: saline + alcohol 114 % of control | dose: 25.0 mg/kg/injection, schedule: Q04DX002 (ip), vehicle: saline 111 % of control

Cc1ccc([N+](=O)[O-])cc1NC(=O)SCCOC(=O)COc1ccc(Cl)cc1Cl
inactive: [13] 94 % of control | [17] 93 % of control | [14] 94 % of control | [3] 98 % of control | [18] 105 % of control | [5] 89 % of control

CC1CN(C=O)CCN1C=O (stereo not given)
inactive: [12] 98 % of control | [15] 98 % of control | [16] 101 % of control

CCN(CC)c1ccc(C2NC(=O)c3ccccc3N2)cc1 (stereo not given)
inactive: dose: 50.0 mg/kg/injection, schedule: Q01DX009 (ip), vehicle: Klucel (hydroxypropylcellulose) (HPC) 106 % of control and 108 % of control | dose: 100.0 mg/kg/injection, schedule: Q01DX009 (ip), vehicle: Klucel (hydroxypropylcellulose) (HPC) 116 % of control | dose: 150.0 mg/kg/injection, schedule: Q01DX009 (ip), vehicle: Klucel (hydroxypropylcellulose) (HPC) 104 % of control and 117 % of control

CCC1C/C(=C\NC(N)=O)C(=O)O1 (stereo not given)
inactive: [13] 96 % of control | [17] 96 % of control | [14] 100 % of control | [3] 104 % of control | [18] 100 % of control | [5] 101 % of control

CCOC(=O)CC(C)=O.CCOC(=O)CC(C)=O.CCOC(=O)CC(C)=O.[Al]
inactive: dose: 12.5 mg/kg/injection, schedule: Q01DX005 (ip), vehicle: Klucel (hydroxypropylcellulose) (HPC) 96 % of control | dose: 12.5 mg/kg/injection, schedule: Q01DX009 (ip), vehicle: Klucel (hydroxypropylcellulose) (HPC) 104 % of control | dose: 25.0 mg/kg/injection, schedule: Q01DX005 (ip), vehicle: Klucel (hydroxypropylcellulose) (HPC) 100 % of control | dose: 25.0 mg/kg/injection, schedule: Q01DX009 (ip), vehicle: Klucel (hydroxypropylcellulose) (HPC) 107 % of control | dose: 50.0 mg/kg/injection, schedule: Q01DX005 (ip), vehicle: Klucel (hydroxypropylcellulose) (HPC) 93 % of control | dose: 100.0 mg/kg/injection, schedule: Q04DX002 (ip), vehicle: Klucel (hydroxypropylcellulose) (HPC) 100 % of control | dose: 200.0 mg/kg/injection, schedule: Q04DX002 (ip), vehicle: Klucel (hydroxypropylcellulose) (HPC) 93 % of control | dose: 400.0 mg/kg/injection, schedule: Q04DX002 (ip), vehicle: Klucel (hydroxypropylcellulose) (HPC) 107 % of control

Cc1ccc(S(=O)(=O)/C=C(\C=C/c2ccccc2)c2ccccc2)cc1
inactive: dose: 100.0 mg/kg/injection, schedule: Q04DX003 (ip), vehicle: acetone 95 % of control | dose: 200.0 mg/kg/injection, schedule: Q04DX003 (ip), vehicle: acetone 95 % of control

OCc1ccccc1
inactive: [13] 105 % of control | [9] 100 % of control | [14] 102 % of control | [10] 101 % of control | [18] 96 % of control | [11] 98 % of control

Reference: PubChem BioAssay AID248 (DTP/NCI, 2004)
